Like-named read-outs stand apart in the source and are kept apart here.
Columns and labels:
[1] = test system: infarct size in the heart; settings: rabbits, cited from earlier work
[2] = test system: NMDA- or NO-induced neurotoxicity in primary cortical cell cultures; assay: Attenuation of NMDA- and NO (SNP)-induced neurotoxicity in primary cortical cell cultures (Example 1, FIG. 1); assay type: cell-based, mice; settings: for EC50: Mus musculus, read-out: protection against NMDA- or NO-induced neurotoxicity, EC50 (50% of maximal protection)
Protocol: Primary cortical cell cultures were prepared from gestational, 16-day fetal mice in a procedure modified from the described in Dawson et al., “Resistance to Neurotoxicity in Cortical Cultures from Neuronal Nitric Oxide Synthase Deficient Mice”, J. Neurosci., 16:2479-87 (1996), the disclosure of which is hereby incorporated by reference. Specifically, the cortex was dissected, and the cortical cells were dissociated by a 30-minute digestion in 0.027% trypsin/saline solution (commercially available from Gibco BRL, Gaithersburg, Md.), followed by trituration in modified Eagle's medium (MEM), 20% horse serum, 25 mM glucose and 2 mM L-glutamine.
The cells were plated on 15 mm multi-well plates coated with polyornithine. Four days after plating, the cells were treated with 5-fluoro-2-deoxyuridine for three days to inhibit the proliferation of non-neuronal cells. The cells were then maintained in MEM, 10% horse serum, 25 mM glucose, and 2 mM L-glutamine in an 8% CO2, humidified 37° C. incubator. The growth medium was refreshed twice per week, and the neurons were allowed to mature for 14 days in culture before being used for experiments.
Before treatment, these critical cultures were washed with Tris buffered control salt solution (CSS) containing 120 mM NaCl, 5.4 mM KCl, 1.8 mM CaCl2, 25 mM Tris-HCl (pH 7.4) and 15 mM glucose. The washed cells were treated with NMDA or the NO-donor sodium nitroprusside (SNP) for five minutes and then washed again. The cells were then placed in growth media and returned to the incubator overnight.
Each data point represented the mean ± standard error of the mean (SEM) (n=8) of at least two separate experiments and reflected a minimum of 16,000 neurons counted.

[3] = biological target: poly(ADP-ribose) polymerase; settings: read-out: IC50 for inhibiting PARP; reported by Suto et al.; cited from earlier work
[4] = test system: NMDA toxicity in cerebral cortical cultures; assay: NMDA toxicity in cortical cultures from wild-type, PARP+/− and PARP−/− mice (FIG. 2B); assay type: cell-based; settings: for effect on NMDA toxicity in wild-type and PARP+/− cultures / effect on NMDA toxicity in PARP−/− cultures: 500 μM NMDA, BZD 500 μM, DPQ 10 μM; for effect on NMDA toxicity in wild-type and PARP+/− cultures: five minutes, MK801 1 μM, NArg 100 μM; for effect on NMDA toxicity in PARP−/− cultures: L-Arg 1 mM
Protocol: (§1) Mice were obtained having a targeted disruption of the PARP gene (PARP−/−), generated by the method of Wang et al., “Mice Lacking ADPRT and poly(ADP-ribosyl)ation Develop Normally But Are Susceptible to Skin Disease”, Genes Dev., 9:509-20 (1995), which is hereby incorporated by reference. The toxicity in cortical cultures elicited by a five-minute exposure to 500 μM NMDA, by 60 minutes of oxygen and glucose deprivation (OGD), and by NO-donors was evaluated, comparing cultures or cerebral cortical cells from wild-type and PARP−/− mice, as shown in FIG. 2A.
(§2) Toxicity was assayed 20-24 hours after exposure to cytotoxic conditions by microscopic examination with computer-assisted cell counting, following staining of all nuclei with 1 μg/ml Hoescht 33342 and staining of dead cell nuclei with 7 μg/ml propidium iodide. All reagents were purchased from Sigma Chemicals, St. Louis, Mo.
(§3) Both total and dead cells were counted. Glial nuclei fluoresce at a different intensity than neuronal nuclei and were gated out. The percentage of cell death was determined as the […], as compared to the percentage of cell death in control wells to account for cell death due to mechanical stimulation of the cultures. At least two separate experiments using four separate wells were performed. The results are shown in FIG. 2A, with a minimum of 15,000-20,000 neurons counted per data point, which represented the mean ± standard error of the mean (SEM)(n=8).

[5] = test system: toxicity elicited by the NO-donor SNP in cortical cultures; assay: SNP (NO-donor) toxicity in cortical cultures from wild-type, PARP+/− and PARP−/− mice; assay type: cell-based
Protocol: as §1, §2
as §3, with “At least two separate experiments using four separate wells were performed.” left out

[6] = test system: OGD toxicity in cortical cultures; assay: Oxygen-glucose deprivation (OGD) toxicity in cortical cultures (FIG. 2C); assay type: cell-based, mice; settings: 60 minutes OGD, MK801 10 μM, NArg 100 μM, L-arginine 1 mM, benzamide 500 μM; for effect on OGD toxicity in wild-type and PARP+/− cultures: DPQ 10 μM
Protocol: See Dawson et al., “Resistance to Neurotoxicity in Cortical Cultures from Neuronal Nitric Oxide Synthase Deficient Mice”, J. Neurosci., 16:2479-87 (1996), the disclosure of which is hereby incorporated by reference. Combined OGD was performed as described in Kaku et al., “Antagonism by non-NMDA Receptors Augments the Neuroprotective Effect of NMDA Receptor Blockage in Cortical Cultures Subjected to Prolonged Deprivation of Oxygen and Glucose”, Brain Res., 554:344-47 (1991) and/or Monyer et al., “Oxygen or Glucose Deprivation-induced Neuronal Injury in Cortical Cell Cultures is Reduced by Tetanus Toxin, Neuron, 8:967-73 (1992), both of which are hereby incorporated by reference.
Specifically, the culture media was completely exchanged with deoxygenated, glucose-free Earle's balanced salt solution (EBSS) containing: 116 mM NaCl, 5.4 mM KCl, 0.8 mM MgSO4, 1 mM NaH2PO4, and 0.9 mM CaCl2, bubbled with 5% H2/85% N2/5% CO2. The cultures were kept in a 37° C., anaerobic chamber for 60 minutes containing the gas mixture 5% H2/85% N2/5% CO2. Combined oxygen-glucose deprivation was terminated by removal of the cultures from the chamber and replacement of the EBSS solution with oxygenated growth media. The cultures were returned to a humidified incubator containing 5% CO2 and atmospheric oxygen at 37° C. overnight.
as §2, §3

[7] = test system: NMDA toxicity in cerebral cortical cultures; settings: concentration of 100 μM; Zhang et al. 1994; cited from earlier work
[8] = biological target: T1, PARP (Mus musculus, UniProt P11103); assay: PARP catalytic (self-modification) assay, mouse brain nuclear fraction; assay type: biochemical; settings: benzamide treatment
T1 construct: from tissue; host or cells: mouse brain (forebrain) nuclear fraction, wild-type 129/SV
T1 sequence (P11103 whole entry): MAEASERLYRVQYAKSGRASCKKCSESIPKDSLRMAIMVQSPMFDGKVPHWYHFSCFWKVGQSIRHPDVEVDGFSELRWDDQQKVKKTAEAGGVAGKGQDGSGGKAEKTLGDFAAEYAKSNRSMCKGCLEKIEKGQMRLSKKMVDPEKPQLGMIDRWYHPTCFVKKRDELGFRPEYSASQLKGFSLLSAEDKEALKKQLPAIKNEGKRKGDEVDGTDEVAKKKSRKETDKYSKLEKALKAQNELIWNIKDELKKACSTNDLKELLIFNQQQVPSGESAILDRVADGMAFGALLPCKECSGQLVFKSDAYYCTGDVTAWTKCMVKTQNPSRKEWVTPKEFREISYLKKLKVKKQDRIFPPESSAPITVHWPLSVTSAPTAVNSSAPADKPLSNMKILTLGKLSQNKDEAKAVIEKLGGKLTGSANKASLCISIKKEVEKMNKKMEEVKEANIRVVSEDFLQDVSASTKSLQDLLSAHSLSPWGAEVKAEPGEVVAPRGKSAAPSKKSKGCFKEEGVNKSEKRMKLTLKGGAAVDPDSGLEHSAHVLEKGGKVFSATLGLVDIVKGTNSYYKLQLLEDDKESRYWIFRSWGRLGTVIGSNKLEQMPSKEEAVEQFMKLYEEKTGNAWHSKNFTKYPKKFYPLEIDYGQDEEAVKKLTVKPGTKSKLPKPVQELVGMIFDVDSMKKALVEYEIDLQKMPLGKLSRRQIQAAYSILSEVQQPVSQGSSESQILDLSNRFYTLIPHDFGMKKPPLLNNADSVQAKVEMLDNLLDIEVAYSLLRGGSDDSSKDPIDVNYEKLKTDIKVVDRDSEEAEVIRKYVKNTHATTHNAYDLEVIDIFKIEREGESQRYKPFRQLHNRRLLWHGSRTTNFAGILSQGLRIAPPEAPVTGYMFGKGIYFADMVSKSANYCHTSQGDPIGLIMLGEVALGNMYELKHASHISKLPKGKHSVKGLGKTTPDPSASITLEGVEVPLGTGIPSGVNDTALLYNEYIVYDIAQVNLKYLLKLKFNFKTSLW

SMILES | effect on NMDA toxicity in wild-type and PARP+/− cultures [4] | effect on NMDA toxicity in PARP−/− cultures [4] | effect on OGD toxicity in wild-type and PARP+/− cultures [6] | effect on OGD toxicity in PARP−/− cultures [6] | other results
Oc1cccc2c(O)nccc12 [1,5-dihydroxyisoquinoline] | – | – | – | – | reduction in infarct size ([1]; 1 mg/kg): 38-48%
NC(=O)c1cccc(N)c1 [3-aminobenzamide] | – | – | – | – | reduction in infarct size in the heart ([1]; single injection 10 mg/kg one minute before occlusion or one minute before reperfusion): 32-42%
O=C1NCCc2c(OCCCCN3CCCCC3)cccc21 [DPQ, 3,4-dihydro-5-[4-(1-piperidinyl)-butoxy]-1(2H)-isoquinolinone] | significantly greater reduction of NMDA toxicity than benzamide | no significant effects | abolished OGD toxicity | – | potency relative to benzamide ([2]; DPQ vs benzamide): 500 times; EC50 ([2]; five-minute exposure to 500 μM NMDA or 500 μM SNP): 200 nM; effect on neurotoxicity at 10-100 μM ([2]; concentrations of 10-100 μM): virtually abolished neurotoxicity; IC50 [3]: 40 nM; effect on SNP toxicity in PARP−/− cultures [5]: no effect; effect on SNP toxicity in wild-type and PARP+/− cultures ([5]; not shown in FIG. 2): reduced the toxicity
N=C(N)NCCC[C@H](N)C(=O)O [L-arginine] | – | no significant effect | reversed the nitroarginine protection | not in PARP−/− cultures | reversal of nitroarginine neuroprotection against NMDA toxicity in wild-type cultures ([4]; L-Arg 1 mM with NArg 100 μM): reversed the neuroprotective effect of nitroarginine
C[C@]12N[C@H](Cc3ccccc31)c1ccccc12 [MK801] | abolished NMDA toxicity | – | profoundly reduced toxicity | no differential effects | –
NC(=O)c1ccccc1 [benzamide] | reduced NMDA toxicity | no significant effect | reduced OGD toxicity | no influence | protection against NMDA neurotoxicity [7]: ~50%; reduction of neurotoxicity at the maximally effective concentration ([2]; 500 μM NMDA or 500 μM SNP, maximally effective concentration): 65%; EC50 [2]: ~100000 nM; other ribosylated nuclear proteins (gray background) in wild-type catalytic assay [8]: reduced

— patent US6358975B1, “Method of using selective parp inhibitors to prevent or treat neurotoxicity” (Johns Hopkins University, priority 1997, dated 2002)
